From US5130253A, “DNAs Encoding mosquito oostatic hormones” (University of Florida, priority 1991, dated 1992)
Where no end group is shown, it is not given here.

Key:
[1] = type: in vitro ADME, mosquito
Source text: The structure of these peptides render them undigestible with known endopeptidases (i.e. proteolytic enzymes like trypsin, pronase, etc.). The peptides were not affected by 1% trifluoroacetic acid and were routinely purified using this acid on HPLC. DNA sequences encoding the peptides of the invention can be used as probes to locate the genes expressing these peptides.

[2] = system: trypsinlike enzymes biosynthesis; assay: Inhibition of trypsin synthesis after injection; type: in vivo, Ctenocephalides felis (bouche); conditions: 0.477 nmol injected; 24 hours later
Protocol: (§1) Female insects were injected with 0.5 μl to 1.0 μl hormone solution
(§2) of analog 1 or saline and analyzed 24 hours later for egg development.
(§3) The insects were evaluated for the effect of oostatic hormone 24 hours after injecting the hormone by dissecting out the ovaries and measuring the yolk in each follicle, or by dissecting out the midgut and determining trypsin biosynthesis as was described by Borovsky, D. (1988), Arch. Insect Biochem. Physiol. 8:249-260. We believe that we have discovered an effective method that can interfere with the biosynthesis of serine esterases (trypsinlike or chymotrypsinlike enzymes) in the midgut of insects.

[3] = system: trypsinlike enzymes biosynthesis; assay: Inhibition of trypsinlike enzyme biosynthesis in the midgut after injection; type: in vivo, Aedes aegypti; conditions: 2.86 nmol injected; 24 hours later
Protocol: as §1, §2, §3
(§4) (a) Female Aedes aegypti were fed blood on a chicken, lightly anesthetized with ether, and immediately injected with different concentrations (1 to 5 μg; 0.25 to 0.5 μl) of synthetic analogs of oostatic hormone (1 and 2). […] Twenty-four hours after the injection of oostatic hormone analogs, or water as a control, egg development and trypsinlike enzyme biosynthesis was determined (Borovsky, D. (1988), Arch, Ins. Biochem. Physiol. 7:187-210). (See Table 2)

Aedes aegypti [4] = assay: Inhibition of egg (ovarian) development after injection into blood-fed females; type: in vivo; conditions: for Inhibition of egg development / Yolk length: 24 hours; for Effect compared with natural, purified oostatic hormone: injection
Protocol: as §1, §2, §3, §4
Groups of female Aedes aegypti were injected with 0.5 to 0.25 μl of
oostatic hormone analogs, or with 0.5 μl of water as control.

Aedes aegypti [5] = assay: Toxicity (mortality) of injected mosquitoes; type: in vivo; conditions: 1 to 5 μg injected in 0.25 to 0.5 μl
Protocol: as §4

houseflies = assay: Topical application in DMSO; type: in vivo; conditions: 10 to 20 μg topically in 1 to 10 μl of DMSO; 24 hours after treatment
Protocol: (§5) (b) Another procedure was to dissolve oostatic hormone analogs (1) or (2) in a solvent that might facilitate transport through the cuticular barrier into hemolymph. Dimethylsulfoxide was used and 10 to 20 μg of (1) or (2) was applied topically to houseflies and stableflies in 1 to 10 μl of DMSO.

stableflies = assay: Topical application in DMSO; type: in vivo; conditions: 10 to 20 μg topically in 1 to 10 μl of DMSO; 24 hours after treatment
Protocol: as §5

Culex quinquefasciatus = assay: Inhibition of ovarian development after injection; type: in vivo; conditions: 3.6 nmol injected; 24 hours later
Protocol: as §1, §2, §3

Lutzomyia anthophora = assay: Inhibition of ovarian development after injection; type: in vivo; conditions: 0.477 nmol injected; 24 hours later
Protocol: as §1, §2, §3

Anopheles albimanus = assay: Inhibition of ovarian development after injection; type: in vivo; conditions: 1.83 nmol injected; 24 hours later
Protocol: as §1, §2, §3

[6] = system: trypsinlike enzymes biosynthesis; assay: Inhibition of trypsin synthesis after injection; type: in vivo, Lutzomyia anthophora; conditions: 0.477 nmol injected; 24 hours later
Protocol: as §1, §2, §3

[7] = system: trypsinlike enzymes biosynthesis; assay: Inhibition of trypsin synthesis after injection; type: in vivo, Musca domestica; conditions: 4.77 nmol injected; 24 hours later
Protocol: as §1, §2, §3

[8] = system: trypsinlike enzymes biosynthesis; assay: Inhibition of trypsin synthesis after injection; type: in vivo, Stomoxys calcitrans; conditions: 4.77 nmol injected; 24 hours later
Protocol: as §1, §2, §3

## YDPAPPPPPP [analog 1, H2 NYDPAP6 COOH]
[1]
  Loss of activity on standing in mosquito homogenate: without loss of activity
[2]
  Inhibition of trypsin synthesis: 50%
[3]
  Inhibition of trypsin synthesis: 86%
Aedes aegypti [4]; 2.86 nmol injected, analyzed 24 hours later
  Inhibition of ovarian development: 98%
Aedes aegypti [4]; 1.20 μg (1.15 nmol) injected
  Inhibition of egg development: 76%
  Yolk length: 82 ± 3 μm
Aedes aegypti [4]; 2.44 μg (2.33 nmol) injected
  Inhibition of egg development: 98%
  Yolk length: 53 ± 3 μm
Aedes aegypti [4]
  Effect compared with natural, purified oostatic hormone: same effect as injection of natural, purified oostatic hormone
Aedes aegypti [5]
  Toxicity: death of injected mosquitoes: none of the injected mosquitoes died
houseflies
  Activity (sterilization through inhibition of trypsin-like enzyme synthesis): Some evidence of activity
stableflies
  Activity (sterilization through inhibition of trypsin-like enzyme synthesis): Some evidence of activity
Culex quinquefasciatus
  Inhibition of ovarian development: 91%
Lutzomyia anthophora
  Inhibition of ovarian development: 50%
Anopheles albimanus
  Inhibition of ovarian development: 100%
[6]
  Inhibition of trypsin synthesis: 30%
[7]
  Inhibition of trypsin synthesis: 85%
[8]
  Inhibition of trypsin synthesis: 50%

## DYPAPPPPPP [analog 2, H2 NDYPAP6 COOH]
Aedes aegypti [4]; 0.96 μg (0.92 nmol) injected
  Inhibition of egg development: 62%
  Yolk length: 102 ± 11 μm
Aedes aegypti [4]; 1.92 μg (1.83 nmol) injected
  Inhibition of egg development: 96%
  Yolk length: 55 ± 11 μm
Aedes aegypti [4]
  Effect compared with natural, purified oostatic hormone: same effect as injection of natural, purified oostatic hormone
Aedes aegypti [5]
  Toxicity: death of injected mosquitoes: none of the injected mosquitoes died
houseflies
  Activity (sterilization through inhibition of trypsin-like enzyme synthesis): Some evidence of activity
stableflies
  Activity (sterilization through inhibition of trypsin-like enzyme synthesis): Some evidence of activity
